Measured values: ChEMBL document CHEMBL1201862, “PubChem BioAssay data set” (2004)
Active and inactive are the calls of the source.

Assays:
[1] = A High Throughput Confirmatory Assay used to Identify Novel Compounds that Inhibit Mycobacterium Tuberculosis in the absence of Glycerol.; assay type: functional
[2] = microbe, parasite or virus in culture; assay type: functional; conditions: Mycobacterium tuberculosis
BJ [3] = experiment: BJ-TERT fibroblast viability loss – cell-based, RAS-independent, luminescence, dose response (AID 1933); assay type: functional; conditions: Homo sapiens
BJ [4] = experiment: cells; assay type: functional, cell-based; conditions: Homo sapiens
[5] = Luminescence-based dose response cell-based high throughput screening assay for cytotoxic compounds using the IEC-6 intestinal epithelial cell line. [Related pubchem assays: 1858 (Summary AID.), 1825 (Counterscreen.), 1907 (Confirmation screen.)]; assay type: functional
BJ [6] = experiment: BJ-TERT-LT-ST fibroblast viability loss – cell-based, RAS-independent, luminescence, dose response (AID 1935); assay type: functional; conditions: Homo sapiens;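 note: BJ fibroblasts immortalized with TERT plus LT and ST oncogenes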
[7] = DRD fibroblast viability loss – cell-based, non-viral oncogenic, luminescence, dose response (AID 1934); assay type: functional; conditions: Homo sapiens
[8] = HEK-293T viability loss after treatment – luminescence, T-cell screen hits, cytotoxicity control for TCR NF-kB inhibitor project, dose response (AID 489026); assay type: functional, cell-based;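 note: cells exposed to compound about 14 hours before the viability readout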
[9] = target: 5-hydroxytryptamine receptor 1E (Homo sapiens, UniProt P28566); experiment: Counterscreen assay for S1P3 antagonists: Dose response cell-based high throughput screening assay to identify antagonists of the 5-Hydroxytryptamine Receptor Subtype 1E (5HT1E). [Related pubchem assays: 1429, 485 ]; assay type: functional
[10] = target: Sphingosine 1-phosphate receptor 3 (Homo sapiens, UniProt Q99500); experiment: Dose response cell-based high throughput screening assay for antagonists of the Sphingosine 1-Phosphate Receptor 3 (S1P3). [Related pubchem assays: 1429, 485 ]; assay type: functional
[11] = target: Sphingosine 1-phosphate receptor 2 (Homo sapiens, UniProt O95136); experiment: Dose Response Cell Based Assay for Agonists of the S1P2 Receptor of Purchased Analogues. [Related pubchem assays: 729, 843, 854, 736 ]; assay type: functional
[12] = tested on: Streptococcus sp. 'group A'; experiment: Streptococcus pyogenes SK(-)GAS viability under kanamycin – luminescence, BacTiterGlo, confirmation, counter-screen for streptokinase expression inhibitor project, dose response (AID 1900); assay type: functional, organism-based
Streptococcus [13] = experiment: Luminescence Microorganism-Based Dose Response Follow up to Identify Compounds Cytotoxic to Streptococcus. [Related pubchem assays: 1677 (Project Summary), 1915, 1914, 1902 (Retest at Dose), 1900 (Counter Screen), 1662 (Primary HTS)]; assay type: functional, organism-based
Streptokinase A [14] = target: T1, Streptokinase A (Streptococcus pyogenes serotype M1, UniProt P10520); experiment: viability-normalized secreted streptokinase activity reduction – plasminogen activation absorbance, OD405, dose response (AID 1914); assay type: functional, Streptococcus pyogenes M1 GAS;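 note: secreted streptokinase activity via plasminogen activation per viability signal from cell pellet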
T1 sequence (P10520 whole entry): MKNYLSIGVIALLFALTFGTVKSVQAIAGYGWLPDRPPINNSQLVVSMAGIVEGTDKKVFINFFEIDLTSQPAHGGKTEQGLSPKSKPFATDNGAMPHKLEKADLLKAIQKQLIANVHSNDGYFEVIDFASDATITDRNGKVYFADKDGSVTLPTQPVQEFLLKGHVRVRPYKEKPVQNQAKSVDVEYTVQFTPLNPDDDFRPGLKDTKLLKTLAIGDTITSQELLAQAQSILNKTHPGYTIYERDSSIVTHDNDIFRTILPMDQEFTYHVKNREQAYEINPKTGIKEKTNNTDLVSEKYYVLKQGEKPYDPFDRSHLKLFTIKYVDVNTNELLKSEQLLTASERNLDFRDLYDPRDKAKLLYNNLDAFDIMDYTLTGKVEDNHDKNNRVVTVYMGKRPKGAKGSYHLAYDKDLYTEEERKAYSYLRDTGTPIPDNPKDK

Streptokinase A [15] = target: T1, Streptokinase A; experiment: Absorbance Microorganism-Based Dose Response Follow up to Identify Inhibitors of Streptokinase Expression. [Related pubchem assays: 1677 (Project Summary), 1915, 1914, 1902 (Retest at Dose), 1900 (Counter Screen), 1662 (Primary HTS)]; assay type: functional, Streptococcus pyogenes M1 GAS
Streptococcus [16] = experiment: GAS UMAA2166 growth inhibition – luminescence, BacTiterGlo, counter-screen for streptokinase expression inhibitor project, dose response (AID 1915); assay type: functional, organism-based;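 note: potency for reduction of bacterial viability or growth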
[17] = viability inhibitors of stage V gametocytes – luminescence, dose response (AID 1117278); assay type: functional, cell-based;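 note: gametocytes exposed to compound for 24 hours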
[18] = viability loss in human Jurkat cells – cell-based, luminescence, cytotoxicity control for P. falciparum gametocyte viability project, dose response (AID 1117277); assay type: functional;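 note: potency reflects loss of cellular ATP meaning fewer viable cells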
Cytochrome P450 2C9 = Cytochrome P450 2C9 (Homo sapiens, UniProt P11712)
[19] = Absorbance Microorganism-Based Dose Response Follow up to Identify Inhibitors of Streptokinase Expression. [Related pubchem assays: 1677 (Project Summary), 1915, 1914, 1902 (Retest at Dose), 1900 (Counter Screen), 1662 (Primary HTS)]

5-hydroxytryptamine receptor 1E, sequence (P28566 whole entry): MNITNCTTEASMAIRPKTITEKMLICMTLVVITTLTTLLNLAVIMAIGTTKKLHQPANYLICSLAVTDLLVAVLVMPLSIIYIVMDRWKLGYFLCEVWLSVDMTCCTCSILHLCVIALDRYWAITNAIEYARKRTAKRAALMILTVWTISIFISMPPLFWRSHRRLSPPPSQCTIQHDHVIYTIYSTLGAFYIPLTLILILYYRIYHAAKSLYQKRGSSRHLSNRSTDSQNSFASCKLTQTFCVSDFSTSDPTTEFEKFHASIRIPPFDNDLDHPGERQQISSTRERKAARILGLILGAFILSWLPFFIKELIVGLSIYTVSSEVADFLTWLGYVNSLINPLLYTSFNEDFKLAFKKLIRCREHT
Cytochrome P450 2C9, sequence (P11712 whole entry): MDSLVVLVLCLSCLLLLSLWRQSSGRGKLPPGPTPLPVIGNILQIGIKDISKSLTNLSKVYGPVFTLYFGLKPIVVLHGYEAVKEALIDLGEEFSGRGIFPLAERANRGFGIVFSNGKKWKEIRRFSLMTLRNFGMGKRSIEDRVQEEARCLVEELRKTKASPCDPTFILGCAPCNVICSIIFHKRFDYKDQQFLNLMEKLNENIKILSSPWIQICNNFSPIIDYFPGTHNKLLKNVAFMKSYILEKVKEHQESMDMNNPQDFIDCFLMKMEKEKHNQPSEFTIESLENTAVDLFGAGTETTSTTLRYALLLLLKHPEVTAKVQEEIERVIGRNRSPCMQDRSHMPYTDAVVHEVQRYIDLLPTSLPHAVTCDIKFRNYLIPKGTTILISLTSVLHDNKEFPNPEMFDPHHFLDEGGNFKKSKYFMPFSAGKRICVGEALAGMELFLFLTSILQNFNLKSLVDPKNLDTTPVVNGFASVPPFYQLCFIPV
Sphingosine 1-phosphate receptor 3, sequence (Q99500 whole entry): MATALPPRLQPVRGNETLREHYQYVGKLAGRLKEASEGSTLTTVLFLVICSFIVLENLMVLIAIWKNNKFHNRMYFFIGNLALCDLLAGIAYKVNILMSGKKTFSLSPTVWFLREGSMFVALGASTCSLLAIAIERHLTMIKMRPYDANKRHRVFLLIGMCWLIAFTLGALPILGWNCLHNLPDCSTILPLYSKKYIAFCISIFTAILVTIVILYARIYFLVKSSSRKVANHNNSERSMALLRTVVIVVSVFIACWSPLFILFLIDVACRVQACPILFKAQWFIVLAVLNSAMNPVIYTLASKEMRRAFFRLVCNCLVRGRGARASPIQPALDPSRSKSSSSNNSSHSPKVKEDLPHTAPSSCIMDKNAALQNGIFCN
Sphingosine 1-phosphate receptor 2, sequence (O95136 whole entry): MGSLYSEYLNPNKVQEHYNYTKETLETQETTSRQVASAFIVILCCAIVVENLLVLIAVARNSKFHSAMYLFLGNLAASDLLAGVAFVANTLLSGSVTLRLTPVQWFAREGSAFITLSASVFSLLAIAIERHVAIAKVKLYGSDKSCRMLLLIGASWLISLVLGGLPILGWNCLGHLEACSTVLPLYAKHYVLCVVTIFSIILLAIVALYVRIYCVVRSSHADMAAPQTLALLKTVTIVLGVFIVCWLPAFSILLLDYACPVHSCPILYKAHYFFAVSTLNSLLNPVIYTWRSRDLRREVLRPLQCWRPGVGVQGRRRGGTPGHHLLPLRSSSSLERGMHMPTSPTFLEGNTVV

In the case of `COc1ccccc1NC(=O)Nc1nc(CC(=O)N2CCN(c3ccccc3F)CC2)cs1`, the IC50 [1] is reported as > 100 µM (active) and the CC50 [2] is reported as > 40 µM (active).

In the case of `COc1cc2c(c(OC)c1OC)-c1ccc(OC)c(=O)cc1[C@@H](N(C)CC#CCO)CC2`, the EC50 (BJ [3]) is reported as 9.89 µM (active), the EC50 (BJ [4]) is reported as 16.7 µM (inconclusive) and the IC50 [5] is reported as 0.226 µM (active). For the same compound, the EC50 (BJ [6]) was 0.616 µM (inconclusive), the EC50 [7] was 1.45 µM (inconclusive) and the IC50 [8] was > 80 µM (inactive).

In the case of `O=C(Nc1ccccc1)C(c1ccccc1)C1CCCC1` (stereo not given), the IC50 [9] is reported as 12.1 µM (not active) and the IC50 [10] is reported as 6.6 µM (active).

With `Cc1cc(C(=O)CN(C)CC(=O)NC(C)C)c(C)n1Cc1ccccc1` the EC50 [11] was > 30 µM (not active).

With `COc1ccc(Sc2ccc(NC(=O)c3ccccc3Cl)cc2C#N)cc1` the EC50 [12] was 1.21 µM (active), the EC50 (Streptococcus [13]) was > 500 µM (not active) and the EC50 (Streptokinase A [14]) was 4.98 µM (active). The EC50 (Streptokinase A [15]) was 3.14 µM (active), the EC50 (Streptococcus [16]) was > 150 µM (not active) and the IC50 [17] was > 109 µM (inactive). For the same compound, the IC50 [18] was > 9.26 µM (active), the AC50 (Cytochrome P450 2C9) was 2.51 µM (inconclusive) and the EC50 [19] was 2.27 µM (active).
